Values of other authors in patent publication US20040121305A1, “Generation of efficacy, toxicity and disease signatures and methods of use thereof” (priority 2002, published 2004).

details: known toxins to be used for toxicity signature generation; organs known to be targeted

| Compound | Target organ/organ system |
| --- | --- |
| NN [hydrazine] | liver |
| corvastatin | cardiovascular system; liver |
| [N]=O [nitric oxide] | respiratory system; cardiovascular |
| CCOC(=O)C(C)(C)Oc1ccc(Cl)cc1 [clofibrate] | muscle |
| CC(=O)Nc1ccc(O)cc1 [acetaminophen] | kidney |
| Cc1c(C)c2c(c(C)c1O)CCC(C)(COc1ccc(CC3SC(=O)NC3=O)cc1)O2 (stereo not drawn) [troglitazone] | liver |
| COc1cc(N)c(Cl)cc1C(=O)NC1CCN(CCCOc2ccc(F)cc2)CC1OC (stereo not drawn) [propulsid] | cardiovascular system |
| CC(=N)S [thioacetamide] | liver; kidney |
| CC[C@]1(O)C[C@H]2CN(CCc3c([nH]c4ccccc34)[C@@](C(=O)OC)(c3cc4c(cc3OC)N(C=O)[C@H]3[C@@](O)(C(=O)OC)[C@H](OC(C)=O)[C@]5(CC)C=CCN6CC[C@]43[C@@H]65)C2)C1 [vincristine] | nervous system; cardiovascular system; reproductive |
| CCN(CC)N=O [diethylntrosamine] | liver |
| Cc1ccc2cc3c(ccc4ccccc43)c3c2c1CC3 [3-methylcholanthrene] | liver |
| Clc1cc2c(cc1Cl)Oc1cc(Cl)c(Cl)cc1O2 [2,3,7,8-tetrachlorodibenzo-p-dioxin] | liver |
| Cc1cn([C@H]2C[C@H](N=[N+]=[N-])[C@@H](CO)O2)c(=O)[nH]c1=O [zidovudine (AZT), zidovudine] | blood; liver |
| O=c1cc(-c2ccccc2)oc2ccc3ccccc3c12 [β-naphthoflavone (BNF), β-naphthoflavone] | liver |
| c1ccccc1 [benzene] | blood |
| S=C=Nc1cccc2ccccc12 [α-naphthyl isothiocyanate (ANIT), α-naphthyl isothiocyanate] | liver |
| CC(=O)Oc1ccccc1C(=O)O [aspirin] | cardiovascular system; kidney |
| ClC(Cl)=C(Cl)C(Cl)=C(Cl)Cl [hexachloro-1,3-butediene (HCBD), hexachloro-1,3-butediene] | kidney |
| [Cl][Co][Cl] [cobalt chloride] | liver |
| CC[C@H](C)C(=O)O[C@H]1C[C@H](O)C=C2C=C[C@H](C)[C@H](CC[C@@H](O)C[C@@H](O)CC(=O)O)[C@H]21 [pravastatin] | cardiovascular system; liver |
| Nc1ccc(O)cc1 [4-aminophenol (PAP), 4-aminophenol] | kidney |
| CN(Cc1cnc2nc(N)nc(N)c2n1)c1ccc(C(=O)N[C@@H](CCC(=O)O)C(=O)O)cc1 [methotrexate] | liver |
| CN(C)CCN(Cc1cccs1)c1ccccn1 [methapyrilene] | liver |

| Compound | Target organ/organ system |
| --- | --- |
| interleukin-6 (IL-6): interleukin-6, listed as a known toxin targeting the liver | liver |
| [Cl][Hg][Cl] [mercury(II) chloride (HgCl2), mercury(II) chloride] | kidney |
| Cc1cccc(Nc2cc(Cl)nc(SCC(=O)O)n2)c1C [Wy-16,463] | liver |
| CNNC [dimethylhydrazine (DMH), dimethylhydrazine] | liver |
| CN(C)c1ncnc2c1ncn2[C@@H]1O[C@H](CO)[C@@H](N)[C@H]1O [puromycin aminonucleoside (PAN), puromycin aminonucleoside] | liver; kidney |
| [F-].[Na+] [sodium fluoride (NaF), sodium fluoride] | liver |
| NC(=O)N1c2ccccc2C=Cc2ccccc21 [carbamezipine] | blood; liver; reproductive system |
| CC(C)(Oc1ccc(C2CC2(Cl)Cl)cc1)C(=O)O (stereo not drawn) [ciprofibrate (cipro), ciprofibrate] | liver |
| Cc1nccn1CC1CCc2c(c3ccccc3n2C)C1=O (stereo not drawn) [ondansetron] | liver |
| CC(=O)[O-].CC(=O)[O-].[Pb+2] [lead acetate (PbAc), lead acetate] | liver, kidney |
| Nc1nc(O)c2ncn(COC(CO)CO)c2n1 [ganciclovir] | blood; liver |
| [Cd] [cadmium] | kidney; liver; nervous system; respiratory system |
| Cc1ccc(C)c(OCCCC(C)(C)C(=O)O)c1 [gamfibrozil] | muscle |
| NCCBr [2-bromoethylamine (BEA), 2-bromoethylamine] | kidney |
| Clc1cc(Cl)c(-c2cc(Cl)c(Cl)cc2Cl)cc1Cl [2,2′,4,4′,5,5′-hexachlorobiphenyl] | liver |
| Cc1cccc(C)c1NC(=O)C(C)N (stereo not drawn) [tocainidine] | cardiovascular system |
| C=CCO [allyl alcohol] | liver |
| COc1ccc(CCN2CCC(Nc3nc4ccccc4n3Cc3ccc(F)cc3)CC2)cc1 [astemizole] | cardiovascular system |
| CCCC(CCC)C(=O)O [valproic acid] | reproductive system |
| C[C@@H]1[C@H](O)[C@@H](C)/C=C/C=C/C=C/C=C/C=C/C=C/C=C/[C@H](O[C@@H]2O[C@H](C)[C@@H](O)[C@H](N)[C@@H]2O)C[C@@H]2O[C@](O)(C[C@@H](O)C[C@@H](O)[C@H](O)CC[C@@H](O)C[C@@H](O)CC(=O)O[C@H]1C)C[C@H](O)[C@H]2C(=O)O [amphotericin B] | blood; cardiovascular system; kidney; liver |
| [AsH3] [arsenic] | liver |
| NNc1ccccc1 [phenylhydrazine (phenylhyrzn), phenylhydrazine] | liver |
